Source: ChEMBL document CHEMBL6092180 (Eur J Med Chem, 2024)
In brackets after ≈: the same amount, converted by molar mass. Activity calls are given as the source filed them. No cut-off for these calls is given here.

What was measured:
[1] = test system: Pichia kudriavzevii; assay: Antifungal activity against Candida krusei GIM 2.1 assessed as inhibition of fungal growth by CLSI M27-A3 guidelines based method; format: functional
[2] = Metabolic stability in human liver microsomes assessed as parent compound remaining preincubated for 10 mins followed by NADPH addition and measured after 60 mins by LC-MS/MS analysis; format: ADME, Microsome; conditions: time 70 min, read-out: Stability
[3] = test system: Candida albicans; assay: Antifungal activity against Candida albicans GIM 2.194 assessed as inhibition of fungal growth by CLSI M27-A3 guidelines based method; format: functional
[4] = Metabolic stability in human liver microsomes assessed as half-life preincubated for 10 mins followed by NADPH addition and measured after 60 mins by LC-MS/MS analysis; format: ADME, Microsome; conditions: time 70 min
[5] = test system: Nakaseomyces glabratus; assay: Antifungal activity against Candida glabrata assessed as inhibition of fungal growth by CLSI M27-A3 guidelines based method; format: functional
[6] = test system: Candida tropicalis; assay: Antifungal activity against Candida tropicalis GIM 2.183 assessed as inhibition of fungal growth by CLSI M27-A3 guidelines based method; format: functional
[7] = test system: Cryptococcus neoformans; assay: Antifungal activity against Cryptococcus neoformans CGMCC 2.3161 assessed as inhibition of fungal growth by CLSI M27-A3 guidelines based method; format: functional
[8] = test system: Candida albicans; assay: Antifungal activity against Candida albicans SC5314 assessed as inhibition of fungal growth by CLSI M27-A3 guidelines based method; format: functional
[9] = test system: Candida parapsilosis; assay: Antifungal activity against Candida parapsilosis GIM 2.190 assessed as inhibition of fungal growth by CLSI M27-A3 guidelines based method; format: functional; conditions: Lodderomyces parapsilosis
[10] = test system: Candida albicans; assay: Antifungal activity against fluconazole and iodiconazole resistant Candida albicans clinical isolate 17# assessed as inhibition of fungal growth by CLSI M27-A3 guidelines based method; format: functional
[11] = MRT(0 to t) in Sprague-Dawley rat at 3 mg/kg, iv by LC-MS/MS analysis; format: ADME, organism-based; conditions: in vivo
[12] = Cytotoxicity against human NCI-H460 cells assessed as inhibition of cell growth incubated for 72 hrs by MTT assay; format: toxicity, cell-based
[13] = Clearance in Sprague-Dawley rat at 3 mg/kg, iv by LC-MS/MS analysis; format: ADME, organism-based; conditions: in vivo
[14] = Apparent volume of distribution in Sprague-Dawley rat at 3 mg/kg, iv by LC-MS/MS analysis; format: ADME, organism-based; conditions: in vivo, read-out: Vz
[15] = test system: Candida albicans; assay: Fungicidal activity fluconazole and iodiconazole resistant Candida albicans clinical isolate 17# assessed as decrease in number of fungi at 4 times of MIC measured within 24 hrs by time-kill kinetics assay; format: functional, organism-based
[16] = test system: Candida albicans; assay: Effect on sterol composition in Candida albicans SC5314 assessed as ergosterol content at 0.05 microg/ml measured after 16 hrs by GC-MS analysis (reference value: 96.96 %); format: functional; conditions: dose 0.05 µg/ml
[17] = test system: Candida albicans; assay: Antifungal activity against fluconazole-resistant Candida albicans clinical isolate 103 assessed as inhibition of fungal growth by CLSI M27-A3 guidelines based method; format: functional
[18] = test system: Candida albicans; assay: Fungicidal activity against fluconazole and iodiconazole resistant Candida albicans clinical isolate 17# incubated for 48 hrs by PDA plate based method; format: functional
[19] = test system: Candida albicans; assay: Antifungal activity against fluconazole-resistant Candida albicans clinical isolate 311 assessed as inhibition of fungal growth by CLSI M27-A3 guidelines based method; format: functional
[20] = test system: Candida albicans; assay: Fungicidal activity fluconazole and iodiconazole resistant Candida albicans clinical isolate 17# assessed as decrease in number of fungi at 2 times of MIC measured within 24 hrs by time-kill kinetics assay; format: functional, organism-based
[21] = Cmax in Sprague-Dawley rat at 10 mg/kg, po by LC-MS/MS analysis; format: ADME, organism-based; conditions: in vivo
[22] = Oral bioavailability in Sprague-Dawley rat at 10 mg/kg by LC-MS/MS analysis; format: ADME, organism-based; conditions: in vivo
[23] = test system: Candida albicans; assay: Effect on sterol composition in Candida albicans SC5314 assessed as 14alpha-demethyllanosterol content at 0.05 microg/ml measured after 16 hrs by GC-MS analysis (reference value: […] %); format: functional; conditions: dose 0.05 µg/ml
[24] = Half-life in Sprague-Dawley rat at 3 mg/kg, iv by LC-MS/MS analysis; format: ADME, organism-based; conditions: in vivo
[25] = test system: Candida albicans; assay: Effect on sterol composition in Candida albicans SC5314 assessed as lanosterol content at 0.05 microg/ml measured after 16 hrs by GC-MS analysis relative to control; format: functional; conditions: dose 0.05 µg/ml
[26] = Tmax in Sprague-Dawley rat at 10 mg/kg, po by LC-MS/MS analysis; format: ADME, organism-based; conditions: in vivo
[27] = test system: Candida albicans; assay: Antibiofilm activity against fluconazole-resistant Candida albicans CPCC400616 assessed as inhibition of metabolic activity of biofilm measured after 24 hrs by XTT reduction assay; format: functional
[28] = Half-life in Sprague-Dawley rat at 10 mg/kg, po by LC-MS/MS analysis; format: ADME, organism-based; conditions: in vivo
[29] = Cytotoxicity against HEK293T cells assessed as inhibition of cell growth incubated for 72 hrs by MTT assay; format: toxicity, cell-based, HEK-293T; conditions: human
[30] = Cytotoxicity against human OVCAR-3 cells assessed as inhibition of cell growth incubated for 72 hrs by MTT assay; format: toxicity, cell-based
[31] = AUC (0 to infinity) in Sprague-Dawley rat at 10 mg/kg, po by LC-MS/MS analysis; format: ADME, organism-based; conditions: in vivo
[32] = Cmax in Sprague-Dawley rat at 3 mg/kg, iv by LC-MS/MS analysis; format: ADME, organism-based; conditions: in vivo
[33] = test system: Aspergillus fumigatus; assay: Antifungal activity against Aspergillus fumigatus cgmcc 3.7795 assessed as inhibition of fungal growth by CLSI M27-A3 guidelines based method; format: functional
[34] = test system: Candida albicans; assay: Antifungal activity against fluconazole-resistant Candida albicans CaR assessed as inhibition of fungal growth by CLSI M27-A3 guidelines based method; format: functional
[35] = test system: Candida albicans; assay: Effect on sterol composition in Candida albicans SC5314 assessed as obtusifoliol content at 0.05 microg/ml measured after 16 hrs by GC-MS analysis relative to control; format: functional; conditions: dose 0.05 µg/ml
[36] = test system: Candida albicans; assay: Inhibition of hyphal formation in fluconazole-resistant Candida albicans CPCC400616 assessed as reduction in invasive ability at 2 microg/ml measured after 4 hrs by inverted microscopic analysis; format: functional, organism-based; conditions: dose 2.0 µg/ml
[37] = Tmax in Sprague-Dawley rat at 3 mg/kg, iv by LC-MS/MS analysis; format: ADME, organism-based; conditions: in vivo
[38] = AUC (0 to infinity) in Sprague-Dawley rat at 3 mg/kg, iv by LC-MS/MS analysis; format: ADME, organism-based; conditions: in vivo
[39] = test system: Candida albicans; assay: Antifungal activity against fluconazole-resistant Candida albicans clinical isolate 632 assessed as inhibition of fungal growth by CLSI M27-A3 guidelines based method; format: functional
[40] = Cytotoxicity against HUVEC cells assessed as inhibition of cell growth incubated for 72 hrs by MTT assay; format: toxicity, cell-based; conditions: human
[41] = test system: Candida albicans; assay: Antifungal activity against fluconazole-resistant Candida albicans clinical isolate 904 assessed as inhibition of fungal growth by CLSI M27-A3 guidelines based method; format: functional
[42] = test system: Candida albicans; assay: Antifungal activity against fluconazole-resistant Candida albicans clinical isolate 100 assessed as inhibition of fungal growth by CLSI M27-A3 guidelines based method; format: functional
[43] = test system: Candida albicans; assay: Effect on sterol composition in Candida albicans SC5314 assessed as other sterols content at 0.05 microg/ml measured after 16 hrs by GC-MS analysis (reference value: 1.06 %); format: functional; conditions: dose 0.05 µg/ml
[44] = test system: Candida albicans; assay: Fungicidal activity fluconazole and iodiconazole resistant Candida albicans clinical isolate 17# assessed as decrease in number of fungi at 1 times of MIC measured within 24 hrs by time-kill kinetics assay; format: functional, organism-based
[45] = test system: Candida albicans; assay: Effect on sterol composition in Candida albicans SC5314 assessed as eburicol content at 0.05 microg/ml measured after 16 hrs by GC-MS analysis relative to control; format: functional; conditions: dose 0.05 µg/ml
[46] = test system: Candida albicans; assay: Fungicidal activity against Candida albicans SC5314 incubated for 48 hrs by PDA plate based method; format: functional
[47] = test system: Candida albicans; assay: Antifungal activity against fluconazole-resistant Candida albicans clinical isolate 901 assessed as inhibition of fungal growth by CLSI M27-A3 guidelines based method; format: functional
[48] = test system: Candida albicans; assay: Antibiofilm activity against fluconazole-resistant Candida albicans CPCC400616 assessed as inhibition of metabolic activity of biofilm measured after 6 hrs by XTT reduction assay; format: functional

Compound `CN(Cc1ccc(C#Cc2ccc(F)cc2F)cc1)CC(O)(Cn1cncn1)c1ccc(F)cc1F` (configuration not stated) has an MIC80 [1] of 0.01 µg/mL (≈ 0.0202 µM), a remaining at 1 h [2] of 20.9% and an MIC80 [3] of 0.006 µg/mL (≈ 0.0121 µM). It also gave a half-life [4] of 0.438 h, an MIC80 [5] of 0.01 µg/mL (≈ 0.0202 µM) and an MIC80 [6] of 0.006 µg/mL (≈ 0.0121 µM). It also gave an MIC80 [7] of 0.013 µg/mL (≈ 0.0263 µM), an MIC80 [8] of 0.006 µg/mL (≈ 0.0121 µM) and an MIC80 [9] of 0.006 µg/mL (≈ 0.0121 µM).
`C[C@@H](N(C)Cc1ccc(C#Cc2ccc(F)cc2F)cc1)[C@](O)(Cn1cncn1)c1ccc(F)cc1F` showed an MIC80 [10] of 0.25 µg/mL (≈ 0.492 µM), an MRT last [11] of 1.92 h and an IC50 at 72 h [12] of over 10 µM. For the same compound, the clearance [13] was 27.5 mL/min/kg, the Vd [14] was 15.7 L/kg and the Activity [15] was “Active; Effectively Kills Fungal Cells In Viable Colony Counts”. It also gave an MIC80 [1] of 0.01 µg/mL (≈ 0.0197 µM), an Activity [16] of 0.29% and an MIC80 [17] of 4 µg/mL (≈ 7.87 µM). For the same compound, the MFC [18] was 1 µg/mL (≈ 1.97 µM), the MIC80 [19] was 8 µg/mL (≈ 15.7 µM) and the Activity [20] was “Active”. It also gave a remaining at 1 h [2] of 25.9%, a Cmax [21] of 283 ng/mL and a bioavailability [22] of 26.3%. The Activity [23] was 2.79%, the MIC80 [3] was 0.006 µg/mL (≈ 0.0118 µM) and the half-life [24] was 6.57 h. It also gave an Activity [25] of 9.97%, a Tmax [26] of 2.33 h and a half-life [4] of 0.503 h. It also gave an MIC50 [27] of 4 µg/mL (≈ 7.87 µM), a half-life [28] of 4.08 h and an MIC80 [5] of 0.01 µg/mL (≈ 0.0197 µM). The MIC80 [6] was 0.006 µg/mL (≈ 0.0118 µM), the IC50 at 72 h [29] was over 10 µM and the IC50 at 72 h [30] was over 10 µM. For the same compound, the AUC(0-inf) [31] was 1600 ng·h/mL, the Cmax [32] was 2460 ng/mL and the MIC80 [7] was 0.013 µg/mL (≈ 0.0256 µM). It also gave an MIC80 [33] of 0.05 µg/mL (≈ 0.0983 µM), an MIC80 [34] of 0.25 µg/mL (≈ 0.492 µM) and an Activity [35] of 13.69%. For the same compound, the inhibition [36] was “Active; Blockade Of Morphological Transformation Observed”, the Tmax [37] was 4.98 min and the MIC80 [8] was 0.006 µg/mL (≈ 0.0118 µM). It also gave an AUC(0-inf) [38] of 1830 ng·h/mL, an MIC80 [39] of 4 µg/mL (≈ 7.87 µM) and an IC50 at 72 h [40] of over 10 µM. It also gave an MIC80 [9] of 0.006 µg/mL (≈ 0.0118 µM), an MIC80 [41] of 8 µg/mL (≈ 15.7 µM) and an MIC80 [42] of 4 µg/mL (≈ 7.87 µM). The Activity [43] was 3.13%, the Activity [44] was “Active” and the Activity [45] was 70.13%. The MFC [46] was 0.125 µg/mL (≈ 0.246 µM), the MIC80 [47] was 4 µg/mL (≈ 7.87 µM) and the MIC50 [48] was 0.5 µg/mL (≈ 0.983 µM).
